Data on 13 compounds can be found in publication PMC10425983 (ACS Infectious Diseases, 2023).

The test system of data set [1] is L. infantum (MHOM/MA(BE)/67/ITMAP263) amastigotes. The data set is described as follows: L. infantum intramacrophage amastigote assay. It is filed as cell-based, Leishmania infantum. The note with it: for EC50: Leishmania infantum, 120 h, read-out: L.inf pEC50 (converted); for SI: ratio CC50 μM (PMM)/EC50 μM (L.inf).
The nature of data set [2]: Cytotoxicity toward primary peritoneal mouse macrophages. It is filed as cell-based. The note with it: Swiss, mouse, primary peritoneal mouse macrophages (PMM), PMM pCC50, primary mouse macrophages; highest in-test concentration 64 μM.
Data set [3] can be described thus: Thermodynamic aqueous solubility. Type of data set: physicochemical.
Data set [4] can be described thus: Human liver microsome intrinsic clearance. Type of data set: in vitro ADME. To be noted: human, human liver microsomes, pH 7.4, HLM clint.
Data set [5] in a line: Rat hepatocyte intrinsic clearance. The note with it: rat, rat hepatocytes. It is filed as in vitro ADME.
For data set [6], the target named is hERG (Homo sapiens, UniProt Q12809). The data set is described as follows: hERG channel blockage. To be noted: hERG pIC50. Type of data set: biochemical. (Block of hERG is tested as a sign of cardiac risk.)
A short description of data set [7]: MDCK-wt permeability assay. Type of data set: in vitro ADME, canine. The note with it: dog.
Data set [8] concerns the target T1, CYP1A2 (Homo sapiens, UniProt P05177).
T1 sequence (P05177 1-516): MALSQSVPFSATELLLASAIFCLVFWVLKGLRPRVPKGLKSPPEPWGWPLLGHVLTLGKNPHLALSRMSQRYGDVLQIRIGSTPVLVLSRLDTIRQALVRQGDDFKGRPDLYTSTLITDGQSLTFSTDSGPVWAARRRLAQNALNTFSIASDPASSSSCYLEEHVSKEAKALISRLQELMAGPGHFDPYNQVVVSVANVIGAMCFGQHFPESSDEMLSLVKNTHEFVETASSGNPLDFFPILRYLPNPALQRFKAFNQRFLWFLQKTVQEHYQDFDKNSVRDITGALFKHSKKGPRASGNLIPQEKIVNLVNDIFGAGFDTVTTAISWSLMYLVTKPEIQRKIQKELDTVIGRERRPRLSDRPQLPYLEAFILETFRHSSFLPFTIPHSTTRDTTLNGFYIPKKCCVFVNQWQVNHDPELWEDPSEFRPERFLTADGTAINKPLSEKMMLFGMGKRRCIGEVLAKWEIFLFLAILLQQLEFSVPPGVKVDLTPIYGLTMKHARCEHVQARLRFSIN
The data set is described as follows: CYP inhibition CYP1A2. Type of data set: in vitro ADME.

For data set [9], the target named is CYP2C19 (Homo sapiens, UniProt P33261). The data set is described as follows: CYP inhibition CYP2C19. Type of data set: in vitro ADME.
For data set [10], the target named is T2, CYP2C8 (Homo sapiens, UniProt P10632).
T2 sequence (P10632 1-490): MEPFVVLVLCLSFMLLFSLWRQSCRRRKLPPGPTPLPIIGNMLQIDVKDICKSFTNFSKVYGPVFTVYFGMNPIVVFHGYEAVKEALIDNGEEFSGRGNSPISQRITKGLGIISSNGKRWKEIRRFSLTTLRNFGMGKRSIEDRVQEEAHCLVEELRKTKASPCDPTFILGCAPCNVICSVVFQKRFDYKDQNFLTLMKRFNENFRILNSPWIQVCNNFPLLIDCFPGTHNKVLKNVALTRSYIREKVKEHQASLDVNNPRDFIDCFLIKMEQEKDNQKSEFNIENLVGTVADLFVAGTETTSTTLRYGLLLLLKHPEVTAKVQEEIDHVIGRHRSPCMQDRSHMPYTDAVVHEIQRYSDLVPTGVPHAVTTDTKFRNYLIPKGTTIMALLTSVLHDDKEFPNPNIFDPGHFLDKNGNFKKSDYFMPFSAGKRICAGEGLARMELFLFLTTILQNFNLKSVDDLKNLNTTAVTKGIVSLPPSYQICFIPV
In words: CYP inhibition CYP2C8. Type of data set: in vitro ADME.

In data set [11] the target is CYP2C9 (Homo sapiens, UniProt P11712). The data set is described as follows: CYP inhibition CYP2C9. It is filed as in vitro ADME.
Data set [12] concerns the target CYP2D6 (Homo sapiens, UniProt P10635). In words: CYP inhibition CYP2D6. Type of data set: in vitro ADME. The note with it: inhibitor class in words.
For data set [13], the target named is CYP3A4 (Homo sapiens, UniProt P08684). In words: CYP inhibition CYP3A4. Type of data set: in vitro ADME. The note with it: inhibitor class in words.
Data set [14] can be described thus: Free plasma concentration. It is filed as in vitro ADME. To be noted: free fraction in plasma.
The test system of data set [15] is primary peritoneal mouse macrophages (PMM). In words: Cytotoxicity toward primary peritoneal mouse macrophages. Type of data set: cell-based. To be noted: primary mouse macrophages; highest in-test concentration 64 μM.

Sequence of CYP2C19 (P33261 whole entry): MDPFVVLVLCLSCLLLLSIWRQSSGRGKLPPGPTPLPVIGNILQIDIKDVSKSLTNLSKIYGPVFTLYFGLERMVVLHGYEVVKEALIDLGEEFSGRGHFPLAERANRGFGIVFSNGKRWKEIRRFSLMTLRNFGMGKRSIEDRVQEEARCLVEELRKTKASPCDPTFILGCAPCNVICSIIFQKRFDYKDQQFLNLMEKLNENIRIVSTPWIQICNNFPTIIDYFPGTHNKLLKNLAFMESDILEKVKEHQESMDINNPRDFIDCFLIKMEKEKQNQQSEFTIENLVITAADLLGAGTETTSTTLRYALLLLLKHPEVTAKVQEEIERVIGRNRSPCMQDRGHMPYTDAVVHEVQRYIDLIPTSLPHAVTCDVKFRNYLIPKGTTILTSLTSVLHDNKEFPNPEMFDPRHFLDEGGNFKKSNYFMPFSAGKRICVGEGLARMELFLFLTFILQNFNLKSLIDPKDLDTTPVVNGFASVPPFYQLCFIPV
Sequence of CYP2C9 (P11712 whole entry): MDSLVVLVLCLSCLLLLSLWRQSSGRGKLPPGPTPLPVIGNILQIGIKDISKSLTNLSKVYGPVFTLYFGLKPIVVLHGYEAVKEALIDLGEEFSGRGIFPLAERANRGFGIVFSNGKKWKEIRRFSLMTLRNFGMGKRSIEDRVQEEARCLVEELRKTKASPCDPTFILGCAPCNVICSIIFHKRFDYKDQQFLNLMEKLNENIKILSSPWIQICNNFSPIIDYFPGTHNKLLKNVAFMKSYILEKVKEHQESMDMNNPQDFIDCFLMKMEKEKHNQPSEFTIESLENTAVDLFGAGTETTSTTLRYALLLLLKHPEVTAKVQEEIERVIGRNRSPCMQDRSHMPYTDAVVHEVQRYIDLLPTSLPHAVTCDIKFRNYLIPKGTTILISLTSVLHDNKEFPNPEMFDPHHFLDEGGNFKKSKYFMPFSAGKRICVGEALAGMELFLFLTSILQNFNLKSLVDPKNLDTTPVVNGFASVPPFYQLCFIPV
Sequence of CYP3A4 (P08684 whole entry): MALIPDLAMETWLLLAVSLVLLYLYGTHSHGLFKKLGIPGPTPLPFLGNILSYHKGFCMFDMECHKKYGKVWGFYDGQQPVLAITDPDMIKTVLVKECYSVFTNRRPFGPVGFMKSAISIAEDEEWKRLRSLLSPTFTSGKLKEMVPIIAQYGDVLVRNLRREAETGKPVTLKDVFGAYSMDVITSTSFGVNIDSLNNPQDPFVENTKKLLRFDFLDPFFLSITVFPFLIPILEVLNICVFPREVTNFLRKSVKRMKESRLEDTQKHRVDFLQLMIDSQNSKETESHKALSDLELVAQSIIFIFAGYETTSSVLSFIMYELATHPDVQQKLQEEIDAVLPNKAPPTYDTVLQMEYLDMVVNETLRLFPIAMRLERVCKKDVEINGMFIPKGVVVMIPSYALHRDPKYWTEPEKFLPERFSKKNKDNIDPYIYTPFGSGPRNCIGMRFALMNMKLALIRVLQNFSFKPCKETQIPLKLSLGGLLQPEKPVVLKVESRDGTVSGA
Sequence of hERG (Q12809 whole entry): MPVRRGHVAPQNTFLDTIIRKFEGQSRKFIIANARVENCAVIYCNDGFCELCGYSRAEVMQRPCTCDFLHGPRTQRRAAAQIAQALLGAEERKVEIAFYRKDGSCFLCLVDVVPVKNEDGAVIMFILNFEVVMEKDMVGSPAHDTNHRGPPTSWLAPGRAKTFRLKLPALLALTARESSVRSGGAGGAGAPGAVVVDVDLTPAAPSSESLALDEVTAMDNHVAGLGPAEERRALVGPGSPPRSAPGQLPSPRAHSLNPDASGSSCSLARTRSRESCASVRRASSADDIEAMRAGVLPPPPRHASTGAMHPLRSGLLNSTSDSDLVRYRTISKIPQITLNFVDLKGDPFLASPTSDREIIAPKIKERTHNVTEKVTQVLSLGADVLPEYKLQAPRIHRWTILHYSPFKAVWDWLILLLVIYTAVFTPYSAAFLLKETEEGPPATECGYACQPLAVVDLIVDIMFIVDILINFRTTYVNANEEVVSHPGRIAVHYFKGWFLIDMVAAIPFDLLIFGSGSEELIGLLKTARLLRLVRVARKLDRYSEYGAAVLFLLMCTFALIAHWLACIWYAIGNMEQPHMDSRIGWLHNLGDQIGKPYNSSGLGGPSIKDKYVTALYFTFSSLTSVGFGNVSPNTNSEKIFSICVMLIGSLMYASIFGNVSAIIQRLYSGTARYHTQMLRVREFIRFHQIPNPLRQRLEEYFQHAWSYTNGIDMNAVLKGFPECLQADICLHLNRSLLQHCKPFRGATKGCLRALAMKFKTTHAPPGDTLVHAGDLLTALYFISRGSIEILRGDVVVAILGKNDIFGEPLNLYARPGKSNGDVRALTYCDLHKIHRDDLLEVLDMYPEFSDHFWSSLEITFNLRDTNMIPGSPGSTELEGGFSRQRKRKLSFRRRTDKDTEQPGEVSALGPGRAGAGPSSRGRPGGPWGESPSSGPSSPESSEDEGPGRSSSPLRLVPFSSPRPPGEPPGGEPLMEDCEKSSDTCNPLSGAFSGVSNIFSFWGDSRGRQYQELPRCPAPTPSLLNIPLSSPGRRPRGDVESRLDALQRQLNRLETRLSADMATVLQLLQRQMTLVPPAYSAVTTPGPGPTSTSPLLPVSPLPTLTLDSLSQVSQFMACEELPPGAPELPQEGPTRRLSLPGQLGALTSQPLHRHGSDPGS
Sequence of CYP2D6 (P10635 whole entry): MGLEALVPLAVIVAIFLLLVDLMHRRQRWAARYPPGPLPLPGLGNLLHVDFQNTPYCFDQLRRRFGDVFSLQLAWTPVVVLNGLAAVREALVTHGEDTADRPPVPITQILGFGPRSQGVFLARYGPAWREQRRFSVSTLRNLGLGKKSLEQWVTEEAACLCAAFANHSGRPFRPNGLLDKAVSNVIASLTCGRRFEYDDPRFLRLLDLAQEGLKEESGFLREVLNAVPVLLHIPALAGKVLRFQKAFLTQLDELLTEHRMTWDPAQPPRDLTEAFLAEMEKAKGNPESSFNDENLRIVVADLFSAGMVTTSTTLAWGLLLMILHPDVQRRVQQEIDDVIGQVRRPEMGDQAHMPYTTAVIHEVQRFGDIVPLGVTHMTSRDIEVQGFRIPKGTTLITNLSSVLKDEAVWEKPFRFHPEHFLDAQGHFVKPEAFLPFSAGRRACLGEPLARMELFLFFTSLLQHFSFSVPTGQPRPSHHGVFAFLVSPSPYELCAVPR

Consider `Fc1ccc(Nc2c(-c3ccccn3)nc3ccc(C4CC4)cn23)cc1` [Compound 3p, 6-Cyclopropyl-N-(4-fluorophenyl)-2-(pyridin-2-yl)imidazo[1,2-a]pyridin-3-amine], for which, in data set [1], the EC50 was 6.31 µM. The SI in data set [1] is 1. Besides, in data set [2], the CC50 – broadly, the concentration at which the toxic effect on the cells reaches its halfway point – at 5 days is 7.94 µM. Besides, in data set [3], the aq. sol. is 0.7 µM. The microsomal CLint (usually a measure of how fast metabolising enzymes remove a compound, apart from limits set by blood flow) at 3 µM in data set [4] worked out at 91.6 µL/min/mg. The hepatocyte CLint – broadly, the capacity of the preparation to metabolise the compound, expressed as a volume cleared per time – in data set [5] stood at 148 µL/min/1e6 cells. Further, the IC50 – broadly, the concentration that inhibits the measured activity by half – in data set [6] is 12.6 µM; in data set [8], 0.59 µM; in data set [9], 1.8 µM; in [10], 4.9 µM; in [11], 0.76 µM. The Papp A→B – broadly, how fast a substance crosses the layer from the apical side – at 2 h, 10 µM in data set [7] is 16.7 ×10⁻⁶ cm/s. In addition, the “CYP1A2 inhibition, classification” value in [8] (inhibitor class in words) is listed as “strong inhibitor”. In data set [9] (inhibitor class in words), the “CYP2C19 inhibition, classification” value is “moderate inhibitor”. Moreover, the “CYP2C8 inhibition, classification” value in data set [10] (inhibitor class in words) is recorded as “moderate inhibitor”. The “CYP2C9 inhibition, classification” value in [11] (inhibitor class in words) is given as “strong inhibitor”. Further, the “CYP2D6 inhibition, classification” value in data set [12] is recorded as “moderate inhibition”. Further, the “CYP3A4 inhibition, classification” value in data set [13] is recorded as “moderate inhibition”.
On to `COc1ccc2nc(-c3ccccn3)c(N(C)c3ccc(F)cc3)n2c1` [Compound 4n, N-(4-Fluorophenyl)-6-methoxy-N-methyl-2-(pyridin-2-yl)imidazo[1,2-a]pyridin-3-amine], for which the free plasma concentration in data set [14] was 2%.
`COc1ccn2c(Cl)c(-c3ccccn3)nc2c1` [Compound 12, 3-Chloro-7-methoxy-2-(pyridin-2-yl)imidazo[1,2-a]pyridine]: in data set [1], the EC50 was 15.8 µM and the SI worked out at 2. In [2], the CC50 at 5 days is 31.6 µM. Besides, the aq. sol. in [3] was 562 µM. Further, the microsomal CLint at 3 µM in [4] is > 300 µL/min/mg. In [5], the hepatocyte CLint was 17 µL/min/1e6 cells.
On to `Fc1ccc(Nc2c(-c3ccccn3)nc3sccn23)cc1` [Compound 3r, N-(4-Fluorophenyl)-6-(pyridin-2-yl)imidazo[2,1-b][1,3]thiazol-5-amine], for which, in [1], the EC50 is 7.94 µM and the SI came to 4. Further, in [2], the CC50 at 5 days was 31.6 µM. The same compound displayed an aq. sol. in [3] of 76 µM. Besides, in data set [4], the microsomal CLint at 3 µM was found to be 270 µL/min/mg. In [5], the hepatocyte CLint was > 300 µL/min/1e6 cells.
Take `Fc1ccc(Nc2c(-c3ccccn3)nc3ccc(F)cn23)cc1` [Compound 3e, 6-Fluoro-N-(4-fluorophenyl)-2-(pyridin-2-yl)imidazo[1,2-a]pyridin-3-amine]: in data set [1], the EC50 is 7.94 µM and the SI amounted to 6. The compound further gave a CC50 at 5 days in data set [2] of 50.1 µM. Besides, in data set [3], the aq. sol. was 25 µM. Moreover, the microsomal CLint at 3 µM in data set [4] is > 300 µL/min/mg. Besides, the hepatocyte CLint in data set [5] is > 300 µL/min/1e6 cells.
For `Fc1ccc(Nc2c(-c3ccccn3)nc3c(F)cccn23)cc1` [Compound 3k, 8-Fluoro-N-(4-fluorophenyl)-2-(pyridin-2-yl)imidazo[1,2-a]pyridin-3-amine], in data set [1], the EC50 was 39.8 µM and the SI was found to be 2. For the same compound, the CC50 at 5 days in [2] was > 63.1 µM. Further, in data set [3], the aq. sol. was 12 µM. For the same compound, the microsomal CLint at 3 µM in [4] turned out to be 220 µL/min/mg. This compound came in with a hepatocyte CLint in data set [5] of 101 µL/min/1e6 cells.
For the compound `Fc1ccc(Nc2c(-c3ccccn3)nc3cccnn23)cc1` [Compound 3d, N-(4-Fluorophenyl)-2-(pyridin-2-yl)imidazo[1,2-b]pyridazin-3-amine], in data set [1], the EC50 is 15.8 µM and the SI was determined as 2. The CC50 at 5 days in [2] is 31.6 µM. For the same compound, in data set [3], the aq. sol. is 68 µM. Besides, the microsomal CLint at 3 µM in data set [4] was 212 µL/min/mg. For the same compound, the hepatocyte CLint in data set [5] was > 300 µL/min/1e6 cells.
Consider `Fc1ccc(Nc2c(-c3ccccn3)nc3cccc(F)n23)cc1` [Compound 3b, 5-Fluoro-N-(4-fluorophenyl)-2-(pyridin-2-yl)imidazo[1,2-a]pyridin-3-amine], for which, in [1], the EC50 was 7.94 µM and the SI is 8. Besides, the CC50 at 5 days in [2] is > 63.1 µM. The aq. sol. in data set [3] amounted to 26 µM. In addition, in data set [4], the microsomal CLint at 3 µM was 60 µL/min/mg. The compound also yielded a hepatocyte CLint in data set [5] of 190 µL/min/1e6 cells.
As for `COc1cccn2c(Nc3ccc(F)cc3)c(-c3ccccn3)nc12` [Compound 3l, N-(4-Fluorophenyl)-8-methoxy-2-(pyridin-2-yl)imidazo[1,2-a]pyridin-3-amine], in data set [1], the EC50 is 7.94 µM and the SI was found to be 8. Also, the CC50 at 5 days in data set [2] is > 63.1 µM. In data set [3], this compound showed an aq. sol. of 2 µM. The compound also showed a microsomal CLint at 3 µM in data set [4] of 143 µL/min/mg. The compound also gave a hepatocyte CLint in data set [5] of 29 µL/min/1e6 cells.
Take `Fc1ccc(Nc2c(-c3ccccn3)nc3ncccn23)cc1` [Compound 3m, N-(4-Fluorophenyl)-2-(pyridin-2-yl)imidazo[1,2-a]pyrimidin-3-amine]: in data set [1], the EC50 was 50.1 µM and the SI is 1. Also, the CC50 at 5 days in data set [2] was > 63.1 µM. The same compound had an aq. sol. in data set [3] of 180 µM. This compound also showed a microsomal CLint at 3 µM in data set [4] of 42.4 µL/min/mg. In [5], this compound registered a hepatocyte CLint of 64.8 µL/min/1e6 cells.
`Fc1ccc(Nc2c(-c3ccccn3)nc3ccccn23)cc1` [Compound 3a, N-(4-Fluorophenyl)-2-(pyridin-2-yl)imidazo[1,2-a]pyridin-3-amine]: in data set [1], the EC50 was 3.98 µM and the SI was 16. For the same compound, in data set [15], the “PMM pCC50” value is given as < 4.2. This compound returned an aq. sol. in data set [3] of 8 µM. This compound also had a microsomal CLint at 3 µM in [4] of 137 µL/min/mg. In addition, the hepatocyte CLint in [5] is > 300 µL/min/1e6 cells.
On to `CSc1ccc2nc(-c3ccccn3)c(Nc3ccc(F)cc3)n2c1` [Compound 3n, N-(4-Fluorophenyl)-6-(methylsulfanyl)-2-(pyridin-2-yl)imidazo[1,2-a]pyridin-3-amine], for which, in [1], the EC50 was 7.94 µM and the SI amounted to 1. The same compound showed a CC50 at 5 days in data set [2] of 7.94 µM. In data set [3], the aq. sol. was 0.5 µM. This compound also yielded a microsomal CLint at 3 µM in data set [4] of 247 µL/min/mg. Also, the hepatocyte CLint in data set [5] is > 300 µL/min/1e6 cells.
With `Fc1ccc(Nc2c(-c3ccccn3)nc3cnccn23)cc1` [Compound 3j, N-(4-Fluorophenyl)-2-(pyridin-2-yl)imidazo[1,2-a]pyrazin-3-amine], in [1], the EC50 is > 63.1 µM and the SI is recorded as 1. Also, in [2], the CC50 at 5 days is > 63.1 µM. In data set [3], the aq. sol. came out at 61 µM. Also, in data set [4], the microsomal CLint at 3 µM came to 202 µL/min/mg. In addition, the hepatocyte CLint in [5] turned out to be 64.2 µL/min/1e6 cells.
